Some results are limits rather than exact numbers.

The first assay deals with T1, human URAT1 (Homo sapiens, UniProt Q96S37).
T1 construct: expressed in transfected cells; host or cells: COS7 cells (RIKEN CELL BANK RCB0539), transient transfection with pcDNA3.1
T1 sequence (Q96S37 1-553): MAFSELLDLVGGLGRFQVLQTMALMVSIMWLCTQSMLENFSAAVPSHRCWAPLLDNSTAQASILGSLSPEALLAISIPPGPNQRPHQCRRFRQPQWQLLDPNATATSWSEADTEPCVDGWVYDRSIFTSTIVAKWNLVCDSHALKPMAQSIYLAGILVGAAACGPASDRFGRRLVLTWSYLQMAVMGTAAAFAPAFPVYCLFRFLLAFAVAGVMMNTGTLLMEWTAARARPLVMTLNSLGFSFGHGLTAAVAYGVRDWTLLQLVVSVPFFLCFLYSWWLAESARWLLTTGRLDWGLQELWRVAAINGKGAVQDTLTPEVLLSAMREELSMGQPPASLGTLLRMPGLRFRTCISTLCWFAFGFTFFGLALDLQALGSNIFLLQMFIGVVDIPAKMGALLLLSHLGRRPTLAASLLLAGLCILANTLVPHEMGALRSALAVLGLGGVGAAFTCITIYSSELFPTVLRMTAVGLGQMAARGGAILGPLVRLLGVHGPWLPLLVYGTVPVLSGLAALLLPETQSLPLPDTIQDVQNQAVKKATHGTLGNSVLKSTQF
As to the kind of experiment: Inhibitory activity of uric acid transport with human URAT1 expressing cells. In kind it is cell-based. The note with it: COS-7; concentration of 100 μM; 14C-uric acid uptake in COS7 cells transiently expressing human URAT1, 20 μM uric acid, 5 minutes; read-out: Percent inhibition. Here is the method:
Full length human URAT1 cDNA (NCBI Accession No. NM_144585) was subcloned into expression vector, pcDNA3.1 (Invitrogen). Human URAT1 expression vector was transfected into COS7 cells (RIKEN CELL BANK RCB0539) using Lipofectamine 2000 (Invitrogen). COS7 cells were seeded in collagen-coated 24 well plates (Japan Becton Dickinson) at 90-95% confluency and cultured in D-MEM culture medium (Invitrogen) containing 10% fetal bovine serum (Sanko Junyaku) for 2 hours at 37° C. under the condition of 5% CO2. For 1 well, 2 μL of Lipofectamine 2000 was diluted in 50 μL of OPTI-MEM (Invitrogen) and allowed to stand at room temperature for 7 minutes (hereinafter referred to as Lipo2000-OPTI). For 1 well, 0.8 μg of human URAT1 expression vector was diluted in 50 μL of OPTI-MEM (Invitrogen) and combined gently with Lipo2000-OPTI. After standing at room temperature for 25 minutes, the mixture was added to COS7 cells at 100 μL/well. […]
All tests were performed on hot-plate at 37° C. […] After mixing, the radioactivity was counted in a liquid scintillation counter (PerkinElmer). The radioactivity in COS7 cells not transfected with URAT1 expression vector was also counted under the same condition as control. […]
A: Radioactivity in control B: Radioactivity in the case of addition of test compounds C: Radioactivity in COS7 cells not transfected with URAT1 expression vector
As for `Cn1ccc2cc(-c3cc(C(=O)O)ccn3)cc([N+](=O)[O-])c21` [Example 2, 2-(1-Methyl-7-nitro-1H-indole-5-yl) isonicotinic acid], the inhibition at 100 µM is greater than 80%.

In a further assay the target is T2, Xanthine oxidase (from bovine milk, Sigma) (Bos taurus, UniProt P80457).
T2 construct: Xanthine oxidase (from bovine milk, Sigma); purchased Sigma; host or cells: bovine milk
T2 sequence (P80457 whole entry): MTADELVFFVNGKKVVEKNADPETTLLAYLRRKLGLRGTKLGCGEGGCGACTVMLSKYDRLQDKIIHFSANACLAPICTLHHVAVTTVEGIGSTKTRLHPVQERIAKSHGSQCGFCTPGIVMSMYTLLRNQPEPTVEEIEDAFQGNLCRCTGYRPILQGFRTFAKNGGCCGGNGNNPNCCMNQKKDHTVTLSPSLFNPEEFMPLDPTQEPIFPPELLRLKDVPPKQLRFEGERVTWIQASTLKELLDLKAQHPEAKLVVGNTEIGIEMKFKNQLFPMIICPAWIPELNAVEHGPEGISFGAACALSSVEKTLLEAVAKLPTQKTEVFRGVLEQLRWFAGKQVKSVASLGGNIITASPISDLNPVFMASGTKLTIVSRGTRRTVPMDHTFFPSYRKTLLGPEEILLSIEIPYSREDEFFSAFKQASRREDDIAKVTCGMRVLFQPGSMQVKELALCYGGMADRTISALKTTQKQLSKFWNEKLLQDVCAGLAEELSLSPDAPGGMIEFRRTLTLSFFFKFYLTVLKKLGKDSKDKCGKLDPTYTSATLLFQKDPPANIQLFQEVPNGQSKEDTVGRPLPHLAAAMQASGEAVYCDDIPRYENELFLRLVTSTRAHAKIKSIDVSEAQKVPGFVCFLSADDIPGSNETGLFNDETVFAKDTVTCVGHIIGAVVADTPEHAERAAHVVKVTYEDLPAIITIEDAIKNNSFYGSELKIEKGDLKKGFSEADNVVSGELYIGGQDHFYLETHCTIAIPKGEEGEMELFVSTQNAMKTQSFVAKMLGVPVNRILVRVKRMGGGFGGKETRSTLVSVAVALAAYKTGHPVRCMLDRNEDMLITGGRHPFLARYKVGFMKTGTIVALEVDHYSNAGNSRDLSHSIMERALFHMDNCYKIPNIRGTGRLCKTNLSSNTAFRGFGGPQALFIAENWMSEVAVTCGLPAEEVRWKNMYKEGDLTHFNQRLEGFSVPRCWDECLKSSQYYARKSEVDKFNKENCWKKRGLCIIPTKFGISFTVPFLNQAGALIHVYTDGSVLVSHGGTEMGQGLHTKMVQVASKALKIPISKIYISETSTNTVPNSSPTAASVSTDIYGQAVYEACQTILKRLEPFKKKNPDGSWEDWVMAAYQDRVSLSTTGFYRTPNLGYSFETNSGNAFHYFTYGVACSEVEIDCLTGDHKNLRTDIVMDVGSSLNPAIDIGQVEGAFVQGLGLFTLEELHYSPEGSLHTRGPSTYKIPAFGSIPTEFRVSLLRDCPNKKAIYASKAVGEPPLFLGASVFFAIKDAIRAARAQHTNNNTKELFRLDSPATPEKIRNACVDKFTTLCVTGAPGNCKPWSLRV
As to the kind of experiment: Xanthine oxidase inhibitory activity. It is filed as biochemical. The settings on record: xanthine 200 μM added, 10 minutes at room temperature, absorbance at 290 nm. Here is the method: Test compounds were dissolved in DMSO (Wako) at 40 mM concentration and then diluted to intended concentrations with phosphate-buffered saline (PBS).
Xanthine oxidase (from bovine milk, Sigma) was prepared with phosphate-buffered saline (PBS) at 0.02 units/mL, and then the solution was added to 96 well plates at 50 μL/well. In addition, test compounds diluted with PBS were added at 50 μL/well. Xanthine (Wako) at 200 μM prepared with PBS was added at 100 μL/well, and the reaction was measured for 10 minutes at room temperature. […] The absorbance under a condition without xanthine is 0%, and control without test compounds is 100%. Fifty % inhibitory concentration (IC50) of test compounds was calculated (Table 5). Ex. No in the table indicates example number.
Turning to `Cn1ccc2cc(-c3cc(C(=O)O)ccn3)cc([N+](=O)[O-])c21` [Example 2, 2-(1-Methyl-7-nitro-1H-indole-5-yl) isonicotinic acid], the IC50 was 48 nM. That is a double-digit nanomolar value. Molecule `Cc1nc(-c2cc(C#N)c3[nH]ccc3c2)sc1C(=O)O` [Example 13] had an IC50 of 7 nM.

Consider `O=C(O)c1ccnc(-c2cc([N+](=O)[O-])c3occc3c2)c1` [Example 4, 2-(7-Nitrobenzofuran-5-yl) isonicotinic acid], for which inhibition was half-maximal at 254 nM (IC50). The same measure, in the same setting: to `Cc1nc(-c2cc(C#N)c3c(c2)c(C)cn3C(C)C)sc1C(=O)O` [Example 8] belongs 10 nM. Still for that read-out and setting: to `Cc1nc(-c2cc(C#N)c3c(c2)c(C)cn3CC(C)C)sc1C(=O)O` [Example 7] belongs 31 nM.

Molecule `COCCn1ccc2cc(-c3cc(C(=O)O)ccn3)cc([N+](=O)[O-])c21` [Example 10] gave an IC50 of 114 nM. This IC50 lies about 3.7-fold higher than the previous one. Same read-out and setting: to `N#Cc1cc(-c2cc(C(=O)O)ccn2)cc2cc[nH]c12` [Example 11, 2-(7-Cyano-1H-indole-5-yl) isonicotinic acid] belongs 12 nM.

`CC(C)Cn1ccc2cc(-c3cc(C(=O)O)ccn3)cc([N+](=O)[O-])c21` [Example 9] showed an IC50 of 13 nM. Same read-out and setting: to `Cn1ccc2cc(-c3cc(C(=O)O)ccn3)cc(C#N)c21` [Example 12, 2-(7-Cyano-1-methyl-1H-indole-5-yl) isonicotinic acid] belongs 17 nM. `Cc1nc(-c2cc(C#N)c3c(c2)c(C)cn3C)sc1C(=O)O` [Example 1, 2-(7-Cyano-1,3-dimethyl-1H-indole-5-yl)-4-methylthiazole-5-carboxylic acid] returned an IC50 of 19 nM. On the same count and under the same terms, to `Cc1nc(-c2cc([N+](=O)[O-])c3c(ccn3C)c2)sc1C(=O)O` [Example 3, 4-Methyl-2-(1-methyl-7-nitro-1H-indole-5-yl) thiazole-5-carboxylic acid] belongs 8 nM.

Broadly, the inhibition is the percentage by which the read-out fell short of the control. By IC50 is commonly meant the concentration that inhibits the measured activity by half. Lower therefore signals inhibition by little substance.

The values are drawn from patent US20110201815A1, “FUSED HETEROCYCLIC DERIVATIVE AND USE THEREOF FOR MEDICAL PURPOSES” (KISSEI PHARMACEUTICAL CO., LTD., priority 2008, published 2011).
